Assay results from patent publication US20230203098A1, “HUMAN TRANSFERRIN RECEPTOR BINDING PEPTIDE” (priority 2020, published 2023).
Like-named read-outs stand apart in the source and are kept apart here. Each block holds one compound with its values, some of them ahead of it. Where a SMILES comes first, the peptide text is derived from it. Bridges are numbered along the chain shown (N, C = ends). [ ]: non-standard residue; d: D form. PEG12 = NCCOCCOCCOCCOCCOCCOCCOCCOCCOCCOCCOCCOCCC(=O)O; NMePhe(3-Cl) = CN[C@@H](Cc1cccc(Cl)c1)C(=O)O; NMeW = CN[C@@H](Cc1c[nH]c2ccccc12)C(=O)O; NMeY = CN[C@@H](Cc1ccc(O)cc1)C(=O)O; NMeF = CN[C@@H](Cc1ccccc1)C(=O)O; Aad = N[C@@H](CCCC(=O)O)C(=O)O; Chg = N[C@H](C(=O)O)C1CCCCC1; hLys = NCCCCC[C@H](N)C(=O)O

Biological target: transferrin receptor (hTfR) (Homo sapiens, UniProt P02786)
Experiment: Intermolecular interaction evaluation test between transferrin receptor (hTfR) and peptide by surface plasmon resonance (SPR)
Format: binding
Outline: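 Receptor was Ni-captured and EDC/NHS-fixed on an NTA chip; running buffer HEPES pH 8.0 with NaCl, Tween 20, BSA and 1.0% DMSO.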

[1] = binding to hTfR by SPR, Table 2 peptides, read-out: KD value (SPR) class
[2] = surface plasmon resonance, hTfR, read-out: KD value for hTfR by SPR (class symbol)
[3] = hTfR binding by SPR, hTfR No. 894 variant peptides, linker-added peptides and payload conjugates (Table 2), read-out: KD value obtained from the SPR measurement
[4] = surface plasmon resonance, peptide vs hTfR, read-out: KD value for hTfR by SPR (class symbol)

Sequence of transferrin receptor (hTfR) (P02786 whole entry): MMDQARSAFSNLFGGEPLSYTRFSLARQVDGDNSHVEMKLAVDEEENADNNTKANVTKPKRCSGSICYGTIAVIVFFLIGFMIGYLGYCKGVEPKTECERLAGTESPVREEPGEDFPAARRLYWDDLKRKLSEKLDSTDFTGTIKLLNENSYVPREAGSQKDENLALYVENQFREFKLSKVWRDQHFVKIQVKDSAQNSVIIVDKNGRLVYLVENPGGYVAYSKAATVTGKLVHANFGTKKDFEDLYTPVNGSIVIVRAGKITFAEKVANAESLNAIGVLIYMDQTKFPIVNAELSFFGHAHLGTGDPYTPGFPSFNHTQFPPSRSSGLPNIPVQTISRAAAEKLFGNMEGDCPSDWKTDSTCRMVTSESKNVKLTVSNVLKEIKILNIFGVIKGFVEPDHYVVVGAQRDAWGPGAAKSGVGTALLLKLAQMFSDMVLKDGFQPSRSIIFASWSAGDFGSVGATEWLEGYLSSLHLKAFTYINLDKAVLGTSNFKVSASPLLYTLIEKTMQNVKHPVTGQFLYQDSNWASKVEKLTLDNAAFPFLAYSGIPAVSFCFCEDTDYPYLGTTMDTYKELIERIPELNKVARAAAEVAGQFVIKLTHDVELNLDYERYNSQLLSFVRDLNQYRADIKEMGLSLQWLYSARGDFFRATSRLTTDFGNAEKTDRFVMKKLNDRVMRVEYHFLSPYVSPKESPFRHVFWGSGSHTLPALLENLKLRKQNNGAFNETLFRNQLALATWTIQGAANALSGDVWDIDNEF

Kd [1]: 1 to 100 nM
Compound: CC[C@H](C)[C@@H]1NC(=O)[C@H](C2CCCCC2)NC(=O)[C@H](Cc2ccc(O)cc2)NC(=O)[C@H](Cc2ccc(O)cc2)NC(=O)[C@H](CC(N)=O)NC(=O)[C@H](Cc2c[nH]c3ccccc23)NC(=O)[C@H](C(C)C)NC(=O)[C@H](Cc2ccccc2)N(C)C(=O)[C@H](C(C)C)NC(=O)[C@H](C)NC(=O)CSC[C@@H](C(=O)NCCOCCOCCOCCOCCOCCOCCOCCOCCOCCOCCOCCOCCC(N)=O)NC(=O)[C@H](Cc2ccc(O)cc2)N(C)C(=O)[C@H](Cc2ccc(O)cc2)NC(=O)[C@H](CCCNC(=N)N)NC(=O)[C@H](CCCNC(=N)N)NC1=O [compound 283] ({CH2CO}-AV[NMeF]VWNYY[Chg]IRRY[NMeY]C[PEG12]-NH2; thioether N-15)

Kd [2]: 1 to 100 nM
Compound: CC[C@H](C)[C@@H]1NC(=O)[C@H](Cc2ccc(OC)cc2)NC(=O)[C@H](Cc2ccc(O)cc2)NC(=O)[C@H](CC(N)=O)NC(=O)[C@H](Cc2c[nH]c3ccccc23)N(C)C(=O)[C@H](C(C)C)NC(=O)[C@H](Cc2cccc(Cl)c2)N(C)C(=O)[C@H](C(C)C)NC(=O)[C@H](C)NC(=O)CSC[C@@H](C(N)=O)NC(=O)[C@H](Cc2ccc(O)cc2)N(C)C(=O)[C@H](Cc2ccccc2)NC(=O)[C@@H](CCCNC(=N)N)NC(=O)[C@H](CCCNC(=N)N)NC(=O)[C@H]([C@@H](C)CC)NC1=O [compound 397]

Kd [3]: 1 to 100 nM
Compound: CC[C@H](C)[C@@H]1NC(=O)[C@H](Cc2ccc(O)cc2)NC(=O)[C@H](Cc2ccc(O)cc2)NC(=O)[C@H](CC(N)=O)NC(=O)[C@H](Cc2c[nH]c3ccccc23)NC(=O)[C@H](C(C)C)NC(=O)[C@H](Cc2ccccc2)N(C)C(=O)[C@H](C(C)C)NC(=O)[C@H](C)NC(=O)CSC[C@@H](C(=O)NCCOCCOCCOCCOCCC(=O)NCCOCCOCCOCCOCCC(=O)NCCOCCOCCOCCOCCC(=O)N[C@@H](CCCCNC(=O)C2CCC(CN3C(=O)C=CC3=O)CC2)C(N)=O)NC(=O)[C@H](Cc2ccc(O)cc2)N(C)C(=O)[C@H](Cc2ccc(O)cc2)NC(=O)[C@H](CCCNC(=N)N)NC(=O)[C@H](CCCNC(=N)N)NC(=O)[C@H]([C@@H](C)CC)NC1=O (some centres unmarked) [compound 182]

Kd [4]: 1 to 100 nM
Compound: CC[C@H](C)[C@@H]1NC(=O)[C@H](Cc2ccc(OC)cc2)NC(=O)[C@H](Cc2ccc(O)cc2)NC(=O)[C@H](CC(N)=O)NC(=O)[C@H](Cc2c[nH]c3ccccc23)N(C)C(=O)[C@H](C(C)C)NC(=O)[C@H](Cc2cccc(Cl)c2)N(C)C(=O)[C@@H]2CCCC(=O)NCCCCC[C@H](NC(=O)[C@H]([C@@H](C)CC)NC1=O)C(=O)N[C@H](CCCNC(=N)N)C(=O)N[C@@H](Cc1ccccc1)C(=O)N(C)[C@@H](Cc1ccc(O)cc1)C(=O)N[C@H](C(N)=O)CSCC(=O)N[C@@H](C)C(=O)N2 [compound 418] ({CH2CO}-A[Aad][NMePhe(3-Cl)]V[NMeW]NYY(Me)II[hLys][dR]F[NMeY]C-NH2; lactam 2-11 (inferred); thioether N-15 (inferred))

Kd (SPR, peptides, linker-added peptides and FITC conjugates, Patent ID 203-230, read-out: KD): 1 to 100 nM
Compound: CC[C@H](C)[C@@H]1NC(=O)[C@H](Cc2ccc(OC)cc2)NC(=O)[C@H](Cc2ccc(O)cc2)NC(=O)[C@H](CC(N)=O)NC(=O)[C@H](Cc2c[nH]c3ccccc23)N(C)C(=O)[C@H](C(C)C)NC(=O)[C@H](Cc2cccc(Cl)c2)N(C)C(=O)[C@H](CCC(=O)O)NC(=O)[C@H](C)NC(=O)CSC[C@@H](C(N)=O)NC(=O)[C@H](CO)NC(=O)[C@H]([C@@H](C)CC)NC1=O [compound 203] ({CH2CO}-AE[NMePhe(3-Cl)]V[NMeW]NYY(Me)IISC-NH2; thioether N-12)

Kd [4]: 1 to 100 nM
Compound: CC[C@H](C)[C@@H]1NC(=O)[C@H](Cc2ccc(O)cc2)NC(=O)[C@H](Cc2ccc(O)cc2)NC(=O)[C@H](CC(N)=O)NC(=O)[C@H](Cc2c[nH]c3ccccc23)N(C)C(=O)[C@H](C(C)C)NC(=O)[C@H](Cc2cccc(Cl)c2)N(C)C(=O)[C@@H]2CCC(=O)NCCCCC[C@H](NC(=O)[C@H]([C@@H](C)CC)NC1=O)C(=O)N[C@@H](CCCNC(=N)N)C(=O)N[C@@H](Cc1ccc(O)cc1)C(=O)N(C)[C@@H](Cc1ccc(O)cc1)C(=O)N[C@H](C(N)=O)CSCC(=O)N[C@@H](C)C(=O)N2 [compound 411]

Kd [1]: 1 to 100 nM
Compound: CC[C@H](C)[C@@H]1NC(=O)[C@H](Cc2ccc(OC)cc2)NC(=O)[C@H](Cc2ccc(O)cc2)NC(=O)[C@H](CC(N)=O)NC(=O)[C@H](Cc2c[nH]c3ccccc23)N(C)C(=O)[C@H](C(C)C)NC(=O)[C@H](Cc2cccc(Cl)c2)N(C)C(=O)[C@H](CCC(=O)N[C@H](CCC(=O)O)C(=O)O)NC(=O)[C@H](C)NC(=O)CSC[C@@H](C(N)=O)NC(=O)[C@H](Cc2ccc(O)cc2)N(C)C(=O)[C@H](Cc2ccccc2)NC(=O)[C@@H](CCCNC(=N)N)NC(=O)[C@H](CCCNC(=N)N)NC(=O)[C@H]([C@@H](C)CC)NC1=O [compound 241]

Kd [3]: 1 to 100 nM
Compound: CC[C@H](C)[C@@H]1NC(=O)[C@H](Cc2ccc(O)cc2)NC(=O)[C@H](Cc2ccc(O)cc2)NC(=O)[C@H](CC(N)=O)NC(=O)[C@H](Cc2c[nH]c3ccccc23)NC(=O)[C@H](C(C)C)NC(=O)[C@H](Cc2ccccc2)N(C)C(=O)[C@H](C(C)C)NC(=O)[C@H](C)NC(=O)CSC[C@@H](C(=O)NCC(=O)NCC(=O)N[C@@H](CO)C(=O)NCC(=O)N[C@@H](CO)C(=O)N[C@@H](CO)C(=O)NCC(=O)N[C@@H](CO)C(=O)N[C@@H](CO)C(=O)N[C@@H](CCCCNC(=O)C2CCC(CN3C(=O)C=CC3=O)CC2)C(N)=O)NC(=O)[C@H](Cc2ccc(O)cc2)N(C)C(=O)[C@H](Cc2ccc(O)cc2)NC(=O)[C@H](CCCNC(=N)N)NC(=O)[C@H](CCCNC(=N)N)NC(=O)[C@H]([C@@H](C)CC)NC1=O (some centres unmarked) [compound 189]

Kd [3]: 1 to 100 nM
Compound: CC[C@H](C)[C@@H]1NC(=O)[C@H](Cc2ccc(O)cc2)NC(=O)[C@H](Cc2ccc(O)cc2)NC(=O)[C@H](CC(N)=O)NC(=O)[C@H](Cc2c[nH]c3ccccc23)NC(=O)[C@H](C(C)C)NC(=O)[C@H](Cc2ccccc2)N(C)C(=O)[C@H](C(C)C)NC(=O)[C@H](C)NC(=O)CSC[C@@H](C(=O)NCC(=O)NCC(=O)N[C@@H](CO)C(=O)N[C@@H](CO)C(=O)N[C@@H](CCCCNC(=O)C2CCC(CN3C(=O)C=CC3=O)CC2)C(N)=O)NC(=O)[C@H](Cc2ccc(O)cc2)N(C)C(=O)[C@H](Cc2ccc(O)cc2)NC(=O)[C@H](CCCNC(=N)N)NC(=O)[C@H](CCCNC(=N)N)NC(=O)[C@H]([C@@H](C)CC)NC1=O (some centres unmarked) [compound 193]

Kd [1]: 1 to 100 nM
Compound: CC[C@H](C)[C@@H]1NC(=O)[C@H](Cc2ccc(O)cc2)NC(=O)[C@H](Cc2ccc(O)cc2)NC(=O)[C@H](CC(N)=O)NC(=O)[C@H](Cc2c[nH]c3ccccc23)NC(=O)[C@H](C(C)C)NC(=O)[C@H](Cc2ccccc2)NC(=O)[C@H](C(C)C)NC(=O)[C@H](C)NC(=O)CSC[C@@H](C(N)=O)NC(=O)[C@H](Cc2ccc(O)cc2)N(C)C(=O)[C@H](Cc2ccc(O)cc2)NC(=O)[C@H](CCCCN)NC(=O)[C@H](CCCNC(=N)N)NC(=O)[C@H]([C@@H](C)CC)NC1=O [compound 258]

Kd [1]: < 1 nM
Compound: CC[C@H](C)[C@@H]1NC(=O)[C@H](Cc2ccc(OC)cc2)NC(=O)[C@H](Cc2ccc(O)cc2)NC(=O)[C@H](CC(N)=O)NC(=O)[C@H](Cc2c[nH]c3ccccc23)N(C)C(=O)[C@H](C(C)C)NC(=O)[C@H](Cc2cccc(Cl)c2)N(C)C(=O)[C@H](CCC(=O)O)NC(=O)[C@H](C)NC(=O)CSC[C@@H](C(N)=O)NC(=O)[C@H](Cc2ccc(O)cc2)N(C)C(=O)[C@H](Cc2ccccc2)NC(=O)[C@H](CCCNC(=N)N)NC(=O)[C@H](CCCNC(=N)N)NC(=O)[C@H]([C@@H](C)CC)NC1=O [compound 233]

Kd [2]: 1 to 100 nM
Compound: CC[C@H](C)[C@@H]1NC(=O)[C@H](Cc2ccc(OC)cc2)NC(=O)[C@H](Cc2ccc(O)cc2)NC(=O)[C@H](CC(N)=O)NC(=O)[C@H](Cc2c[nH]c3ccccc23)N(C)C(=O)[C@H](C(C)C)NC(=O)[C@H](Cc2cccc(Cl)c2)N(C)C(=O)[C@H](C(C)C)NC(=O)[C@H](C)NC(=O)CSC[C@@H](C(N)=O)NC(=O)[C@H](Cc2ccc(O)cc2)N(C)C(=O)[C@H](CCC(=O)NCCCC[C@@H](NC)C(=O)O)NC(=O)[C@@H](CCCNC(=N)N)NC(=O)[C@H](CCCNC(=N)N)NC(=O)[C@H]([C@@H](C)CC)NC1=O [compound 390]

Kd (SPR, hTfR, class symbols A-D, read-out: KD (column without head, continuation of the table series)): < 1 nM
Compound: CC[C@H](C)[C@@H]1NC(=O)[C@H](Cc2ccc(OC)cc2)NC(=O)[C@H](Cc2ccc(O)cc2)NC(=O)[C@H](CC(N)=O)NC(=O)[C@H](Cc2c[nH]c3ccccc23)NC(=O)[C@H](C(C)C)NC(=O)[C@H](Cc2cccc(Cl)c2)N(C)C(=O)[C@H](C(C)C)NC(=O)[C@H](C)NC(=O)CSC[C@@H](C(=O)NCCOCCOCCOCCOCCC(N)=O)NC(=O)[C@H](Cc2ccc(O)cc2)N(C)C(=O)[C@H](Cc2ccccc2)NC(=O)[C@H](CCCNC(=N)N)NC(=O)[C@H](CCCNC(=N)N)NC(=O)[C@H]([C@@H](C)CC)NC1=O [compound 502]

Kd (surface plasmon resonance, peptide vs hTfR, read-out: KD value, hTfR binding by SPR (class symbol)): 1 to 100 nM
Compound: CC[C@H](C)[C@@H]1NC(=O)[C@H](Cc2ccc(O)cc2)NC(=O)[C@H](Cc2ccc(O)cc2)NC(=O)[C@H](CC(N)=O)NC(=O)[C@H](Cc2c[nH]c3ccccc23)NC(=O)[C@H](C(C)C)NC(=O)[C@H](Cc2ccccc2)N(C)C(=O)[C@H](C(C)C)NC(=O)[C@H](C)NC(=O)CSC[C@@H](C(N)=O)NC(=O)[C@H](Cc2ccc(O)cc2)N(C)C(=O)[C@H](Cc2ccc(O)cc2)NC(=O)[C@H](CCCNC(=N)N)NC(=O)[C@H](CCCCN)N(C)C(=O)[C@H]([C@@H](C)CC)NC1=O [compound 292]
